What was measured:
Format in all cases: functional
[1] = tested on: SN12C; experiment: Cytotoxicity against human SN12C cells assessed as cell growth at 10^-6 M after 48 hrs by SRB assay; conditions: read-out: Activity
[2] = tested on: Malme-3M; experiment: Cytotoxicity against human MALME-3M cells assessed as cell growth at 10^-4 M after 48 hrs by SRB assay; conditions: read-out: Activity
[3] = tested on: CAKI-1; experiment: Cytotoxicity against human Caki1 cells assessed as cell growth at 10^-6 M after 48 hrs by SRB assay; conditions: CAKI-1, 48 h, read-out: Activity
[4] = tested on: SK-MEL-28; experiment: Cytotoxicity against human SK-MEL-28 cells assessed as cell growth at 10^-4 M after 48 hrs by SRB assay; conditions: SK-MEL-28, 48 h, read-out: Activity
[5] = tested on: HOP-62; experiment: Cytotoxicity against human HOP62 cells assessed as cell growth at 10^-4 M after 48 hrs by SRB assay; conditions: HOP-62, 48 h, read-out: Activity
[6] = tested on: MDA-MB-231; experiment: Cytotoxicity against human MDA-MB-231 cells assessed as cell growth at 10^-6 M after 48 hrs by SRB assay; conditions: MDA-MB-231, 48 h, read-out: Activity
[7] = tested on: OVCAR-8; experiment: Cytotoxicity against human OVCAR8 cells assessed as cell growth at 10^-8 M after 48 hrs by SRB assay; conditions: OVCAR-8, 48 h, read-out: Activity
[8] = tested on: OVCAR-3; experiment: Cytotoxicity against human OVCAR3 cells assessed as cell growth at 10^-7 M after 48 hrs by SRB assay; conditions: OVCAR-3, 48 h, read-out: Activity
[9] = tested on: DU-145; experiment: Cytotoxicity against human DU145 cells assessed as cell growth at 10^-8 M after 48 hrs by SRB assay; conditions: DU-145, 48 h, read-out: Activity
[10] = tested on: NCI-H23; experiment: Cytotoxicity against human NCI-H23 cells after 48 hrs by SRB assay; conditions: NCI-H23, 48 h
[11] = tested on: SK-OV-3; experiment: Cytotoxicity against human SKOV3 cells assessed as cell growth at 10^-6 M after 48 hrs by SRB assay; conditions: SK-OV-3, 48 h, read-out: Activity
[12] = Cytotoxicity against human Hs578T cells after 48 hrs by SRB assay; conditions: Hs-578T
[13] = tested on: HOP-92; experiment: Cytotoxicity against human HOP92 cells assessed as cell growth at 10^-4 M after 48 hrs by SRB assay; conditions: HOP-92, 48 h, read-out: Activity
[14] = tested on: NCI-H226; experiment: Cytotoxicity against human NCI-H226 cells assessed as cell growth at 10^-4 M after 48 hrs by SRB assay; conditions: NCI-H226, 48 h, read-out: Activity
[15] = tested on: T47D; experiment: Cytotoxicity against human T47D cells assessed as cell growth at 10^-4 M after 48 hrs by SRB assay; conditions: read-out: Activity
[16] = Cytotoxicity against human OVCAR4 cells assessed as cell growth at 10^-8 M after 48 hrs by SRB assay; conditions: OVCAR-4, 48 h, read-out: Activity
[17] = tested on: DU-145; experiment: Cytotoxicity against human DU145 cells assessed as cell growth at 10^-6 M after 48 hrs by SRB assay; conditions: DU-145, 48 h, read-out: Activity
[18] = tested on: SF-295; experiment: Cytotoxicity against human SF295 cells assessed as cell growth at 10^-4 M after 48 hrs by SRB assay; conditions: SF-295, 48 h, read-out: Activity
[19] = tested on: T47D; experiment: Cytotoxicity against human T47D cells assessed as cell growth at 10^-7 M after 48 hrs by SRB assay; conditions: read-out: Activity
[20] = tested on: HL-60(TB); experiment: Cytotoxicity against human HL-60(TB) cells assessed as cell growth at 10^-6 M after 48 hrs by SRB assay; conditions: HL-60, 48 h, read-out: Activity
[21] = tested on: SK-OV-3; experiment: Cytotoxicity against human SKOV3 cells assessed as cell growth at 10^-7 M after 48 hrs by SRB assay; conditions: SK-OV-3, 48 h, read-out: Activity
[22] = tested on: M14; experiment: Cytotoxicity against human M14 cells after 48 hrs by SRB assay; conditions: M14, 48 h
[23] = tested on: SK-OV-3; experiment: Cytotoxicity against human SKOV3 cells assessed as cell growth at 10^-8 M after 48 hrs by SRB assay; conditions: SK-OV-3, 48 h, read-out: Activity
[24] = tested on: HCC 2998; experiment: Cytotoxicity against human HCC2998 cells assessed as cell growth at 10^-6 M after 48 hrs by SRB assay; conditions: HCC 2998, 48 h, read-out: Activity
[25] = tested on: LOX IMVI; experiment: Cytotoxicity against human LOXIMVI cells after 48 hrs by SRB assay
[26] = tested on: SF-268; experiment: Cytotoxicity against human SF268 cells assessed as cell growth at 10^-6 M after 48 hrs by SRB assay; conditions: SF-268, 48 h, read-out: Activity
[27] = tested on: ACHN; experiment: Cytotoxicity against human ACHN cells assessed as cell growth at 10^-6 M after 48 hrs by SRB assay; conditions: read-out: Activity
[28] = tested on: A498; experiment: Cytotoxicity against human A498 cells assessed as cell growth at 10^-6 M after 48 hrs by SRB assay; conditions: A498, 48 h, read-out: Activity
[29] = tested on: SK-OV-3; experiment: Cytotoxicity against human SKOV3 cells assessed as cell growth at 10^-4 M after 48 hrs by SRB assay; conditions: SK-OV-3, 48 h, read-out: Activity
[30] = tested on: ACHN; experiment: Cytotoxicity against human ACHN cells assessed as cell growth at 10^-8 M after 48 hrs by SRB assay; conditions: read-out: Activity
[31] = tested on: NCI-H522; experiment: Cytotoxicity against human NCI-H522 cells after 48 hrs by SRB assay; conditions: NCI-H522, 48 h
[32] = tested on: SK-MEL-2; experiment: Cytotoxicity against human SK-MEL-2 cells assessed as cell growth at 10^-6 M after 48 hrs by SRB assay; conditions: SK-MEL-2, 48 h, read-out: Activity
[33] = tested on: KM12; experiment: Cytotoxicity against human KM12 cells assessed as cell growth at 10^-6 M after 48 hrs by SRB assay; conditions: KM12, 48 h, read-out: Activity
[34] = tested on: SF-539; experiment: Cytotoxicity against human SF539 cells assessed as cell growth at 10^-6 M after 48 hrs by SRB assay; conditions: SF-539, 48 h, read-out: Activity
[35] = tested on: SW-620; experiment: Cytotoxicity against human SW620 cells assessed as cell growth at 10^-6 M after 48 hrs by SRB assay; conditions: SW-620, 48 h, read-out: Activity
[36] = tested on: T47D; experiment: Cytotoxicity against human T47D cells assessed as cell growth at 10^-8 M after 48 hrs by SRB assay; conditions: read-out: Activity
[37] = tested on: TK-10; experiment: Cytotoxicity against human TK10 cells after 48 hrs by SRB assay; conditions: TK-10, 48 h
[38] = tested on: TK-10; experiment: Cytotoxicity against human TK10 cells assessed as cell growth at 10^-7 M after 48 hrs by SRB assay; conditions: TK-10, 48 h, read-out: Activity
[39] = tested on: A498; experiment: Cytotoxicity against human A498 cells assessed as cell growth at 10^-8 M after 48 hrs by SRB assay; conditions: A498, 48 h, read-out: Activity
[40] = tested on: MOLT-4; experiment: Cytotoxicity against human MOLT4 cells assessed as cell growth at 10^-8 M after 48 hrs by SRB assay; conditions: MOLT-4, 48 h, read-out: Activity
[41] = read-out: LC50 (the source's name)

Q: For `C=CCn1c(C)nc2cc(Nc3nc(Nc4ccc5nc(C)n(CC=C)c5c4)c4ccccc4n3)ccc21`, which growth at 1 µM [1] is on record?
A: 65%

Q: And the growth at 100 µM [2]?
A: -42%

Q: What about the growth at 1 µM [3] of the same compound?
A: 88%

Q: What about the growth at 100 µM [4] of the same compound?
A: -48%

Q: What about the growth at 100 µM [5] of the same compound?
A: -38%

Q: And the growth at 1 µM [6]?
A: -62%

Q: And the growth at 0.01 µM [7]?
A: 100%

Q: And the growth at 0.1 µM [8]?
A: 101%

Q: What about the growth at 0.01 µM [9] of the same compound?
A: 99%

Q: What about the GI50 [10] of the same compound?
A: 2.05 µM

Q: What about the TGI [10] of the same compound?
A: 4.2 µM

Q: What about the growth at 1 µM [11] of the same compound?
A: 97%

Q: What about the GI50 [12] of the same compound?
A: 2.16 µM

Q: And the LC50 [12]?
A: > 100 µM

Q: What about the TGI [12] of the same compound?
A: 5.16 µM

Q: And the growth at 100 µM [13]?
A: -84%

Q: And the growth at 100 µM [14]?
A: -12%

Q: What about the growth at 100 µM [15] of the same compound?
A: -13%

Q: And the growth at 0.01 µM [16]?
A: 93%

Q: And the growth at 1 µM [17]?
A: 18%

Q: And the growth at 100 µM [18]?
A: -85%

Q: What about the growth at 0.1 µM [19] of the same compound?
A: 94%

Q: And the growth at 1 µM [20]?
A: 90%

Q: And the growth at 0.1 µM [21]?
A: 106%

Q: And the GI50 [22]?
A: 1.43 µM

Q: What about the TGI [22] of the same compound?
A: 3.24 µM

Q: And the growth at 0.01 µM [23]?
A: 95%

Q: And the growth at 1 µM [24]?
A: 63%

Q: What about the GI50 [25] of the same compound?
A: 0.18 µM

Q: What about the LC50 [25] of the same compound?
A: 0.64 µM

Q: And the TGI [25]?
A: 0.339 µM

Q: And the growth at 1 µM [26]?
A: 52%

Q: And the growth at 1 µM [27]?
A: 35%

Q: What about the growth at 1 µM [28] of the same compound?
A: 93%

Q: What about the growth at 100 µM [29] of the same compound?
A: -29%

Q: And the growth at 0.01 µM [30]?
A: 105%

Q: What about the GI50 [31] of the same compound?
A: 0.171 µM

Q: What about the TGI [31] of the same compound?
A: 0.332 µM

Q: What about the growth at 1 µM [32] of the same compound?
A: 74%

Q: What about the growth at 1 µM [33] of the same compound?
A: -40%

Q: And the growth at 1 µM [34]?
A: 56%

Q: And the growth at 1 µM [35]?
A: -69%

Q: What about the growth at 0.01 µM [36] of the same compound?
A: 92%

Q: And the GI50 [37]?
A: 0.522 µM

Q: What about the LC50 [37] of the same compound?
A: 4.13 µM

Q: What about the TGI [37] of the same compound?
A: 1.71 µM

Q: And the growth at 0.1 µM [38]?
A: 100%

Q: And the growth at 0.01 µM [39]?
A: 101%

Q: And the growth at 0.01 µM [40]?
A: 98%

Q: What does the source list for `C=CCn1c(C)nc2ccc(Nc3nc(Nc4ccc(F)cc4)nc4ccccc34)cc21`?
A: growth at 1 µM [1]: 81%; growth at 100 µM [2]: -51%; growth at 1 µM [3]: 93%; growth at 100 µM [4]: -50%; growth at 100 µM [5]: -46%; growth at 1 µM [6]: 85%; growth at 0.01 µM [7]: 98%; growth at 0.1 µM [8]: 98%; growth at 0.01 µM [9]: 100%; GI50 [10]: 4.23 µM; LC50 (concentration giving 50% net cell kill) [10]: > 100 µM; TGI [10]: 26 µM; growth at 1 µM [11]: 100%; GI50 [12]: 9.83 µM; LC50 [12]: > 100 µM; TGI [12]: 56.7 µM; growth at 100 µM [13]: -84%; growth at 100 µM [14]: -5%; growth at 100 µM [15]: -13%; growth at 0.01 µM [16]: 96%; growth at 1 µM [17]: 95%; growth at 100 µM [18]: -87%; growth at 0.1 µM [19]: 85%; growth at 1 µM [20]: 104%; growth at 0.1 µM [21]: 112%; GI50 [22]: 3.26 µM; TGI [22]: 14.2 µM; CC50 [22, 41]: > 100 µM; growth at 0.01 µM [23]: 96%; growth at 1 µM [24]: 98%; GI50 [25]: 4.36 µM; LC50 [25]: > 100 µM; TGI [25]: 23 µM; growth at 1 µM [26]: 94%; growth at 1 µM [27]: 94%; growth at 1 µM [28]: 65%; growth at 100 µM [29]: -37%; growth at 0.01 µM [30]: 98%; GI50 [31]: 3.12 µM; TGI [31]: 13.4 µM; CC50 [31, 41]: 75.5 µM; growth at 1 µM [32]: 96%; growth at 1 µM [33]: 94%; growth at 1 µM [34]: 89%; growth at 1 µM [35]: 89%; growth at 0.01 µM [36]: 85%; GI50 [37]: 6.83 µM; LC50 [37]: 75.5 µM; TGI [37]: 24.6 µM; growth at 0.1 µM [38]: 104%; growth at 0.01 µM [39]: 81%; growth at 0.01 µM [40]: 98%

— ChEMBL document CHEMBL3112450, “Synthesis and in vitro antitumor evaluation of primary amine substituted quinazoline linked benzimidazole” (Bioorg Med Chem Lett, 2014)
